According to paper PMC8523698, “Preclinical characterization of an intravenous coronavirus 3CL protease inhibitor for the potential treatment of COVID19” (Nature Communications, 2021):
Several values for one entry are separate records, joined by “and”; a condition that tells them apart may be missing. Identical values can stand only once. Like-named read-outs stand apart in the source and are kept apart here.

Assays:
HCoV-229E = experiment: Viral CPE assay in MRC-5 cells (CellTiter Glo); type: cell-based
CYP2C8 = biological target: T1, CYP2C8 (Homo sapiens, UniProt P10632); experiment: Reversible CYP inhibition in human liver microsomes; details: for activity at 0.01 µM / activity at 0.158 µM / activity at 0.398 µM / activity at 1 µM / activity at 15.8 µM / activity at 39.8 µM / activity at 100 µM: human, microsomes, pH 7.4, Percent of Control Activity
T1 sequence (P10632 1-490): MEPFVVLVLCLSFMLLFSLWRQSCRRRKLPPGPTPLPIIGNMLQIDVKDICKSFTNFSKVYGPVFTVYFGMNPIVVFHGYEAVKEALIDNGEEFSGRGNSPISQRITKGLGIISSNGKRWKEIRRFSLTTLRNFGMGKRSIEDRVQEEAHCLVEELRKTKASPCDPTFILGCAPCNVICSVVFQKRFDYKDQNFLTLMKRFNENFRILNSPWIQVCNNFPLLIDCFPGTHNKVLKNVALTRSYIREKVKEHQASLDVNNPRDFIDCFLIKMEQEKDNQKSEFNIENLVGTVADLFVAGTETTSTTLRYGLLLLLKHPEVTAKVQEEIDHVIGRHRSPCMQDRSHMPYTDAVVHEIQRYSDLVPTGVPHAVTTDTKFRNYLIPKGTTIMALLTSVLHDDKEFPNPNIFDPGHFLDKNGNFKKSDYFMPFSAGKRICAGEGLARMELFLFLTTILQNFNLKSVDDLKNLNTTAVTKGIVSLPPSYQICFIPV

OATP1B3 = biological target: T2, OATP1B3 (Homo sapiens, UniProt Q9NPD5); experiment: Transporter inhibition using transfected HEK293 cells; details: IC50, Rosuvastatin (0.5 µM)
T2 sequence (Q9NPD5 1-702): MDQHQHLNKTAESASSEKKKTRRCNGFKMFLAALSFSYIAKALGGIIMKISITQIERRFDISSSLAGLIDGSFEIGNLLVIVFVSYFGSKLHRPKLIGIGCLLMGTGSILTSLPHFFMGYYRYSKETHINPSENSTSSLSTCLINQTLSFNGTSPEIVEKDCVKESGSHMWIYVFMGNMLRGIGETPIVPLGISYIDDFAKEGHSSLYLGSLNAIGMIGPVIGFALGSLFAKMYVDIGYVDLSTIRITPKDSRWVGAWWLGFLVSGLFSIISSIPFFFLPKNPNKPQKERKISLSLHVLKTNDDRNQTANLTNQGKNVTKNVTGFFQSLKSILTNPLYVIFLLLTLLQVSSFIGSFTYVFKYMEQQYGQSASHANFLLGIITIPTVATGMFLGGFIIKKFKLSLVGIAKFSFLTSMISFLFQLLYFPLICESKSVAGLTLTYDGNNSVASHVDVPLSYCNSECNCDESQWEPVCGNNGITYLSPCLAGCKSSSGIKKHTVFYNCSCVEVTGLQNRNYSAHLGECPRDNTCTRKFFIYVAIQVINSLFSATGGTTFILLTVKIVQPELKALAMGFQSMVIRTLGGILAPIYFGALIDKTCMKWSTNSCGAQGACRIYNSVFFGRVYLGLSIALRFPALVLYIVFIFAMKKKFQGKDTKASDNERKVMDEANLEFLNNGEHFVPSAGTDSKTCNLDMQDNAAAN

COc1cccc2[nH]c(C(=O)N[C@@H](CC(C)C)C(=O)N[C@@H](C[C@@H]3CCNC3=O)C(=O)COP(=O)(O)O)cc12 [PF-07304814] was tested, and the EC50 (HCoV-229E; Human coronavirus 229E, MRC5, read-out: EC50 GeoMean (95% CI), efflux inhibitor CP-100356: 0) was 74 nM, the EC50 (HCoV-229E; Human coronavirus 229E, MRC5, read-out: EC50 GeoMean (95% CI), efflux inhibitor CP-100356: 0.5 μM) was 58 nM and the EC50 (HCoV-229E; MRC-5, plus 0.5 uM efflux inhibitor, one value per run date (N=3), read-out: EC50) was 81.8 nM. The IC50 (CYP2C8) was over 100000 nM, the IC50 (CYP2C8; Amodiaquine N-dealkylation, T30) was over 100000 nM and the “Percent of Control Activity” value (CYP2C8; CYP 2C8, 0.01 µM, 30-Minute Preincubation, 0.01 µM) was 100.2%. For the same compound, the “Percent of Control Activity” value (CYP2C8; CYP 2C8, 0.01 µM, Zero-Minute Preincubation, 0.01 µM) was 96.2% and 97.6%, the “Percent of Control Activity” value (CYP2C8; CYP 2C8, 0.158 µM, 30-Minute Preincubation, 0.158 µM) was 96.6% and 95.8% and the “Percent of Control Activity” value (CYP2C8; CYP 2C8, 0.158 µM, Zero-Minute Preincubation, 0.158 µM) was 91.2% and 95.2%. For the same compound, the “Percent of Control Activity” value (CYP2C8; CYP 2C8, 0.398 µM, 30-Minute Preincubation, 0.398 µM) was 95.5% and 95.0%, the “Percent of Control Activity” value (CYP2C8; CYP 2C8, 0.398 µM, Zero-Minute Preincubation, 0.398 µM) was 94.0% and 94.9% and the “Percent of Control Activity” value (CYP2C8; CYP 2C8, 1 µM, 30-Minute Preincubation, 1 µM) was 96.0% and 95.0%. For the same compound, the “Percent of Control Activity” value (CYP2C8; CYP 2C8, 1 µM, Zero-Minute Preincubation, 1 µM) was 93.7%, the “Percent of Control Activity” value (CYP2C8; CYP 2C8, 15.8 µM, 30-Minute Preincubation, 15.8 µM) was 96.2% and 94.8% and the “Percent of Control Activity” value (CYP2C8; CYP 2C8, 15.8 µM, Zero-Minute Preincubation, 15.8 µM) was 94.0% and 95.0%. The “Percent of Control Activity” value (CYP2C8; CYP 2C8, 39.8 µM, 30-Minute Preincubation, 39.8 µM) was 94.8% and 91.6%, the “Percent of Control Activity” value (CYP2C8; CYP 2C8, 39.8 µM, Zero-Minute Preincubation, 39.8 µM) was 94.6% and the “Percent of Control Activity” value (CYP2C8; CYP 2C8, 100 µM, 30-Minute Preincubation, 100 µM) was 96.4%. The “Percent of Control Activity” value (CYP2C8; CYP 2C8, 100 µM, Zero-Minute Preincubation, 100 µM) was 88.3%, the activity at 0.01 µM (CYP2C8; CYP 2C8, 0.01 µM, 30-Minute Preincubation) was 94.3% and the activity at 0.01 µM (CYP2C8; CYP 2C8, 0.01 µM, Zero-Minute Preincubation) was 95.1%. The activity at 0.158 µM (CYP2C8; CYP 2C8, 0.158 µM, 30-Minute Preincubation) was 90.5%, the activity at 0.158 µM (CYP2C8; CYP 2C8, 0.158 µM, Zero-Minute Preincubation) was 91.3% and the activity at 0.398 µM (CYP2C8; CYP 2C8, 0.398 µM, 30-Minute Preincubation) was 92.1%. It also gave an activity at 0.398 µM (CYP2C8; CYP 2C8, 0.398 µM, Zero-Minute Preincubation) of 95.4%, an activity at 1 µM (CYP2C8; CYP 2C8, 1 µM, 30-Minute Preincubation) of 91.8% and an activity at 1 µM (CYP2C8; CYP 2C8, 1 µM, Zero-Minute Preincubation) of 92.1%. For the same compound, the activity at 15.8 µM (CYP2C8; CYP 2C8, 15.8 µM, 30-Minute Preincubation) was 88.9%, the activity at 15.8 µM (CYP2C8; CYP 2C8, 15.8 µM, Zero-Minute Preincubation) was 89.3% and the activity at 39.8 µM (CYP2C8; CYP 2C8, 39.8 µM, 30-Minute Preincubation) was 88.9%. It also gave an activity at 39.8 µM (CYP2C8; CYP 2C8, 39.8 µM, Zero-Minute Preincubation) of 87%, an activity at 100 µM (CYP2C8; CYP 2C8, 100 µM, 30-Minute Preincubation) of 89.5% and an activity at 100 µM (CYP2C8; CYP 2C8, 100 µM, Zero-Minute Preincubation) of 85.6%. For the same compound, the IC50 (OATP1B3) was 202000 nM and > 130000 nM.
